In ChEMBL document CHEMBL1201862, “PubChem BioAssay data set” (2004):
Active and inactive are the calls of the source. Rule as the data show it: actives have a measured IC50 and inactives only a lower limit.

Target: Envelope glycoprotein gp160 (Human immunodeficiency virus 1, UniProt Q6QLK5)
Assay: inhibitors of HIV fusion peptide binding, primary screen, biochemical, uHTS, fluorescence dequenching (AID 1986)

Envelope glycoprotein gp160, sequence (Q6QLK5 whole entry, the tested form may be a part): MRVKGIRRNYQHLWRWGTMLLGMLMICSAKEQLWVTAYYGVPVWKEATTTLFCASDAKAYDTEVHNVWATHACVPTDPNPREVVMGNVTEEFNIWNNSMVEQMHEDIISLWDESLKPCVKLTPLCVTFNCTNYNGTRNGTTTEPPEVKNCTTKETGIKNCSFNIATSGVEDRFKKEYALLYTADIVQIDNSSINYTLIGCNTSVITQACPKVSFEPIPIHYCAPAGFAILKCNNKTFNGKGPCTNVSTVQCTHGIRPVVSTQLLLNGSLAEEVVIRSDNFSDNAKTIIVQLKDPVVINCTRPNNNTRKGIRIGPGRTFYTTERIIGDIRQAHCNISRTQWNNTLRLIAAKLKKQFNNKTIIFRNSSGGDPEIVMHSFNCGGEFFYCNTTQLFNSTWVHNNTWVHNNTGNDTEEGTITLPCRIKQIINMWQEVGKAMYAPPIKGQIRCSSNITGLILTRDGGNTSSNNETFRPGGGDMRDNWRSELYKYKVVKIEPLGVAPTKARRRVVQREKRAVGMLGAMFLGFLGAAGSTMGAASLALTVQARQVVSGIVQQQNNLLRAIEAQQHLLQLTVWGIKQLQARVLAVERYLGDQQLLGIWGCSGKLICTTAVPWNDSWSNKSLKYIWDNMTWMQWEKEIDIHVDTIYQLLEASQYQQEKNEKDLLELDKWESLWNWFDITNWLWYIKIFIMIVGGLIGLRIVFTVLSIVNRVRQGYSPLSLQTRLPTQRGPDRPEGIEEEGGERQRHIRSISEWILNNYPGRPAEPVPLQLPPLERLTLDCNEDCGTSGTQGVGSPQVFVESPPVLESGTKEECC

O=C(O)c1ccc(-c2ccc(/C=c3/sc4nc5ccccc5n4c3=O)o2)cc1Cl
IC50: 13.7 µM (active)
